Reference: US10563263B2, “Genetic polymorphisms associated with statin response and cardiovascular diseases, methods of detection and uses thereof” (CELERA CORPORATION, priority 2010, dated 2020)

Test system: CVD (CHD or stroke)
Experiment: CARE: SNP by pravastatin treatment interaction, logistic regression (synergy index), CVD endpoint
Type: in vivo, human
Settings: for OR (SNP x pravastatin interaction) / OR (synergy index, SNP x pravastatin treatment interaction): CARE; for OR (synergy index), CARE, Prava vs Placebo: CVD endpoint
From the text: CARE was a secondary prevention trial and WOSCOPS was a primary prevention trial.
The CHD endpoint was defined in the analyses herein of CARE as a composite endpoint of fatal CHD, definite non-fatal MI, or revascularization, and was defined in the analyses herein of WOSCOPS as a composite endpoint of death from CHD, nonfatal MI, or revascularization. In both the CARE and WOSCOPS analyses herein, the CVD endpoint was defined as a composite endpoint of CHD or stroke. […] Revascularization, which can include percutaneous transluminal coronary angioplasty (PTCA), stent placement, and coronary artery bypass graft (CABG), are medical interventions that indicate the presence of CHD.
Cohort and case-only study designs were used to identify SNPs associated with response to statin treatment.
For each SNP, a logistic regression model having treatment status as the dependent variable and SNP as the independent predictor variable was performed, with terms for age, sex and race included in the model as covariates. The anti-log of the regression coefficient corresponding to the SNP is an estimate of the synergy index (SI) (Davis et al., “Imputing gene-treatment interactions when the genotype distribution is unknown using case-only and putative placebo analyses-a new method for the Genetics of Hypertension Associated Treatment (GenHAT) study”, Statistics in Medicine 23: (2004), pages 2413-2427). The SI is a ratio of odds ratios: for example in the CARE and WOSCOPS studies, the SI represents the factor by which the odds-ratio of statin treatment, compared with placebo, among major homozygous individuals is multiplied by in order to obtain the odds-ratio of treatment vs. placebo among heterozygous individuals; and multiplied by a second time to obtain the odds-ratio of treatment vs. placebo in minor homozygous individuals. […] In a randomized clinical trial, genotype and treatment are independent by design.

CC[C@H](C)C(=O)O[C@H]1C[C@H](O)C=C2C=C[C@H](C)[C@H](CC[C@@H](O)C[C@@H](O)CC(=O)O)[C@H]21 [Pravastatin, pravastatin]
OR (SNP x pravastatin interaction) (rs2132242 allele A, ADD model, Imputed): 0.7317 | OR (SNP x pravastatin interaction) (rs2132242 allele A, DOM model, Imputed): 0.6043 | OR (SNP x pravastatin interaction) (rs2158958 allele A, DOM model, Imputed): 0.6617 | OR (SNP x pravastatin interaction) (rs2158961 allele G, DOM model, Imputed): 0.6544 | OR (SNP x pravastatin interaction) (rs2163046 allele A, DOM model, Imputed): 1.474 | OR (SNP x pravastatin interaction) (rs2180286 allele G, DOM model, Imputed): 0.6211 | OR (SNP x pravastatin interaction) (rs2180684 allele A, DOM model, Imputed): 1.684 | OR (SNP x pravastatin interaction) (rs2188079 allele C, ADD model, Imputed): 1.333 | OR (SNP x pravastatin interaction) (rs2190598 allele T, DOM model, Imputed): 0.6617 | OR (SNP x pravastatin interaction) (rs2190600 allele A, DOM model, Imputed): 0.6716 | OR (SNP x pravastatin interaction) (rs2224184 allele T, DOM model, Genotyped): 0.6357 | OR (SNP x pravastatin interaction) (rs2247066 allele A, DOM model, Imputed): 0.6151 | OR (SNP x pravastatin interaction) (rs2248236 allele C, ADD model, Imputed): 0.6377 | OR (SNP x pravastatin interaction) (rs2248236 allele C, DOM model, Imputed): 0.6049 | OR (SNP x pravastatin interaction) (rs2265733 allele C, ADD model, Imputed): 0.6269 | OR (SNP x pravastatin interaction) (rs2265733 allele C, DOM model, Imputed): 0.5989 | OR (SNP x pravastatin interaction) (rs2270584 allele A, ADD model, Imputed): 0.7437 | OR (SNP x pravastatin interaction) (rs2270584 allele A, DOM model, Imputed): 0.5859 | OR (SNP x pravastatin interaction) (rs2270586 allele A, ADD model, Imputed): 0.7444 | OR (SNP x pravastatin interaction) (rs2270586 allele A, DOM model, Imputed): 0.5879 | OR (SNP x pravastatin interaction) (rs2317057 allele T, ADD model, Imputed): 0.7125 | OR (SNP x pravastatin interaction) (rs2322100 allele T, REC model, Genotyped): 1.768 | OR (SNP x pravastatin interaction) (rs2322101 allele A, REC model, Imputed): 1.764 | OR (SNP x pravastatin interaction) (rs2327929 allele G, REC model, Imputed): 1.996 | OR (SNP x pravastatin interaction) (rs2332844 allele A, ADD model, Imputed): 1.802 | OR (SNP x pravastatin interaction) (rs2332844 allele A, REC model, Imputed): 1.849 | OR (SNP x pravastatin interaction) (rs2349170 allele G, DOM model, Imputed): 1.638 | OR (SNP x pravastatin interaction) (rs2356722 allele G, DOM model, Imputed): 0.5863 | OR (SNP x pravastatin interaction) (rs2364956 allele T, ADD model, Imputed): 1.439 | OR (SNP x pravastatin interaction) (rs2373793 allele G, ADD model, Imputed): 1.379 | OR (SNP x pravastatin interaction) (rs2373793 allele G, DOM model, Imputed): 1.446 | OR (SNP x pravastatin interaction) (rs2383903 allele G, DOM model, Imputed): 0.6249 | OR (SNP x pravastatin interaction) (rs2387945 allele G, DOM model, Imputed): 1.587 | OR (SNP x pravastatin interaction) (rs2389863 allele A, DOM model, Imputed): 0.6722 | OR (SNP x pravastatin interaction) (rs2389866 allele C, DOM model, Imputed): 0.6634 | OR (SNP x pravastatin interaction) (rs2389869 allele C, DOM model, Imputed): 0.6634 | OR (SNP x pravastatin interaction) (rs2389870 allele C, DOM model, Genotyped): 0.6413 | OR (synergy index, SNP x pravastatin treatment interaction) (rs16938626 allele G, model DOM, Imputed): 0.612 | OR (synergy index, SNP x pravastatin treatment interaction) (rs16964300 allele G, model ADD, Imputed): 0.6771 | OR (synergy index, SNP x pravastatin treatment interaction) (rs16964300 allele G, model DOM, Imputed): 0.7073 | OR (synergy index, SNP x pravastatin treatment interaction) (rs16986282 allele G, model DOM, Imputed): 0.3124 | OR (synergy index, SNP x pravastatin treatment interaction) (rs17007620 allele G, model ADD, Imputed): 1.421 | OR (synergy index, SNP x pravastatin treatment interaction) (rs17007620 allele G, model DOM, Imputed): 1.572 | OR (synergy index, SNP x pravastatin treatment interaction) (rs17014326 allele G, model DOM, Imputed): 0.5837 | OR (synergy index, SNP x pravastatin treatment interaction) (rs17047957 allele C, model DOM, Imputed): 1.47 | OR (synergy index, SNP x pravastatin treatment interaction) (rs17073341 allele A, model ADD, Imputed): 2.568 | OR (synergy index, SNP x pravastatin treatment interaction) (rs17073341 allele A, model DOM, Imputed): 2.569 | OR (synergy index, SNP x pravastatin treatment interaction) (rs17138702 allele G, model ADD, Imputed): 0.5527 | OR (synergy index, SNP x pravastatin treatment interaction) (rs17189710 allele T, model ADD, Imputed): 1.359 | OR (synergy index, SNP x pravastatin treatment interaction) (rs17189710 allele T, model REC, Imputed): 1.896 | OR (synergy index, SNP x pravastatin treatment interaction) (rs17310176 allele T, model ADD, Imputed): 0.6381 | OR (synergy index, SNP x pravastatin treatment interaction) (rs17310176 allele T, model DOM, Imputed): 0.5794 | OR (synergy index, SNP x pravastatin treatment interaction) (rs17358860 allele A, model DOM, Imputed): 0.6291 | OR (synergy index, SNP x pravastatin treatment interaction) (rs17370541 allele T, model REC, Imputed): 2.075 | OR (synergy index, SNP x pravastatin treatment interaction) (rs17530747 allele T, model DOM, Imputed): 0.5794 | OR (synergy index, SNP x pravastatin treatment interaction) (rs17649114 allele C, model DOM, Imputed): 1.543 | OR (synergy index, SNP x pravastatin treatment interaction) (rs17766172 allele A, model REC, Imputed): 0.3869 | OR (synergy index), CARE, Prava vs Placebo (SNP rs304597 (A1 A, A2 G), rec model, cohort): 1.95 | OR (synergy index), CARE, Prava vs Placebo (SNP rs304601 (A1 A, A2 G), rec model, Caseonly): 2.28 | OR (synergy index), CARE, Prava vs Placebo (SNP rs988146 (A1 G, A2 A), add model, Caseonly): 0.66 | OR (synergy index), CARE, Prava vs Placebo (SNP rs1336400 (A1 A, A2 G), dom model, cohort): 1.68 | OR (synergy index), CARE, Prava vs Placebo (SNP rs1559557 (A1 G, A2 A), add model, Caseonly): 1.34 | OR (synergy index), CARE, Prava vs Placebo (SNP rs1877527 (A1 G, A2 A), add model, Caseonly): 0.75 | OR (synergy index), CARE, Prava vs Placebo (SNP rs2132241 (A1 A, A2 G), add model, Caseonly): 0.74 | OR (synergy index), CARE, Prava vs Placebo (SNP rs2270588 (A1 G, A2 A), add model, Caseonly): 0.72 | OR (synergy index), CARE, Prava vs Placebo (SNP rs3844207 (A1 G, A2 C), add model, cohort): 0.73 | OR (synergy index), CARE, Prava vs Placebo (SNP rs7132840 (A1 T, A2 G), add model, cohort): 0.75 | OR (synergy index), CARE, Prava vs Placebo (SNP rs9325191 (A1 A, A2 C), add model, Caseonly): 0.74 | OR (synergy index), CARE, Prava vs Placebo (SNP rs9346951 (A1 A, A2 G), add model, Caseonly): 1.56 | OR (synergy index), CARE, Prava vs Placebo (SNP rs10787944 (A1 G, A2 A), dom model, Caseonly): 1.63 | OR (synergy index), CARE, Prava vs Placebo (SNP rs10945874 (A1 T, A2 C), add model, cohort): 1.72 | OR (synergy index), CARE, Prava vs Placebo (SNP rs11178579 (A1 T, A2 G), add model, cohort): 0.76 | OR (synergy index), CARE, Prava vs Placebo (SNP rs13103899 (A1 G, A2 A), dom model, cohort): 0.70 | OR (synergy index), CARE, Prava vs Placebo (SNP rs13107334 (A1 G, A2 T), add model, cohort): 0.69 | OR (synergy index), CARE, Prava vs Placebo (SNP rs13121569 (A1 G, A2 A), dom model, Caseonly): 0.66 | OR (synergy index), CARE, Prava vs Placebo (SNP rs17048681 (A1 G, A2 T), add model, cohort): 1.26
